Structures are written as SMILES. Counter-ions that a name gives are not always drawn.

One experiment concerns the target T1, TLR7 (Homo sapiens, UniProt Q9NYK1).
T1 construct: expressed in transfected cells; host or cells: HEK/293 cells carrying TLR7 and an NF-kB luciferase reporter
T1 sequence (Q9NYK1 27-1049): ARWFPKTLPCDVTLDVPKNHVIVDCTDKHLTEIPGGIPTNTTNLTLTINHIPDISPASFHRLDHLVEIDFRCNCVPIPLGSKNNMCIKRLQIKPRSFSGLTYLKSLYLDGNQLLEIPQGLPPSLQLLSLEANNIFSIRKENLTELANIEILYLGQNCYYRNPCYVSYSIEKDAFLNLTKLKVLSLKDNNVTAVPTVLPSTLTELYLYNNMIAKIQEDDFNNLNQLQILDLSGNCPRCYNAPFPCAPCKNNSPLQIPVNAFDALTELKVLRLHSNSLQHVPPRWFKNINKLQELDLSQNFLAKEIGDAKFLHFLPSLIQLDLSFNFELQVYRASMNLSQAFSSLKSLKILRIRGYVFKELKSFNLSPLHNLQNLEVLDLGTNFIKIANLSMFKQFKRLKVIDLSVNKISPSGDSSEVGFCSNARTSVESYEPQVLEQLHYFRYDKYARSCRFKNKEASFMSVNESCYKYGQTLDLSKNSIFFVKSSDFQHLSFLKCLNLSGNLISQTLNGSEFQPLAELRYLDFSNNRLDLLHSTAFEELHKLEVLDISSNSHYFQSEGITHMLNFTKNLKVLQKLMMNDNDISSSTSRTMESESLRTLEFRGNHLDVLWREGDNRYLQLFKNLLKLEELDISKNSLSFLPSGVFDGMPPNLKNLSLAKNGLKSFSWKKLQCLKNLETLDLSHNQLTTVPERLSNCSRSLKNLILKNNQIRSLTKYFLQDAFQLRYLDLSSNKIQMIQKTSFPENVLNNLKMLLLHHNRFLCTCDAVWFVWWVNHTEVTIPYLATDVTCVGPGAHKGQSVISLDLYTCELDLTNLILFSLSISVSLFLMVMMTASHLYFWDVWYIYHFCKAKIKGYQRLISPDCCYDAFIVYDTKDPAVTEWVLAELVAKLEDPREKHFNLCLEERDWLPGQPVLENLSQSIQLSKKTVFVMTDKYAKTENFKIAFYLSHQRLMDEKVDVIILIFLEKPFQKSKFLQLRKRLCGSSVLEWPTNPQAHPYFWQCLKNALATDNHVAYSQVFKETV
As to the kind of experiment: HEK/293 TLR7 Cell Assay. The note with it: TLR7/NFKb HEK cells, R848 agonist 10 uM final concentration, Steady-Glo readout; read-out: TLR7 potency. The format is cell-based. The essentials: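 TLR7/NF-κB reporter HEK293 cells, 5000/well, cultured 24 h, then preincubated 30 min with compound before R848 agonist (10 uM final). After 5 h stimulation, Steady-Glo luciferase luminescence read.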

In the next experiment the target is T2, TLR8 (Homo sapiens, UniProt Q9NR97).
T2 construct: expressed in transfected cells; host or cells: HEK/293 reporter cells (NF-kB luciferase)
T2 sequence (Q9NR97 27-1041): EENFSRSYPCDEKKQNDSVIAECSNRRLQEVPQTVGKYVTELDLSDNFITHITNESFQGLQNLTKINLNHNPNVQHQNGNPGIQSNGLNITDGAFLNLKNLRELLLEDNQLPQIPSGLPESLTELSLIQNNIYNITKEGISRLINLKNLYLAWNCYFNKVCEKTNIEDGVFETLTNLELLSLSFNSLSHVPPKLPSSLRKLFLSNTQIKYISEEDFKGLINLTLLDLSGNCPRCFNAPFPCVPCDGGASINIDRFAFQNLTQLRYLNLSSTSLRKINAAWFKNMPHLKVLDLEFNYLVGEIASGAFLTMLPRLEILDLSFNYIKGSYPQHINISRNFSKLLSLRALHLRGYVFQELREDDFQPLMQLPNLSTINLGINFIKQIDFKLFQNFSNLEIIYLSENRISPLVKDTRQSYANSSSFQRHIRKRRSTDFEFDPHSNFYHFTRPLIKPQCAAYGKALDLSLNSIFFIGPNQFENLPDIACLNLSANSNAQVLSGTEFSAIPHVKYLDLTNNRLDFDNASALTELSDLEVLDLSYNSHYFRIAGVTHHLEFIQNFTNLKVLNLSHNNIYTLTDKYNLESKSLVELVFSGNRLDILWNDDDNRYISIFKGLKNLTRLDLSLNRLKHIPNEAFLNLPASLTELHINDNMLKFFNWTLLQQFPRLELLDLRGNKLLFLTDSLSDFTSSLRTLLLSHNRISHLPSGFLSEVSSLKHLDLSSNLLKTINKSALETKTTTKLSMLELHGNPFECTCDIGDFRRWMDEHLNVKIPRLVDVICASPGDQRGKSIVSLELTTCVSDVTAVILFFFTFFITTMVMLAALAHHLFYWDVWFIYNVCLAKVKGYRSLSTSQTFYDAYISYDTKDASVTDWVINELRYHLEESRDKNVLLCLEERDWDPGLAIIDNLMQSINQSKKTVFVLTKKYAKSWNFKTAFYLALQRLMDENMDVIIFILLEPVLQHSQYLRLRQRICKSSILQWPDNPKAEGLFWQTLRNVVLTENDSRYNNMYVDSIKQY
The experiment in a line: HEK/293 TLR8 Cell Assay. The experiment is classed as cell-based. The note with it: HEK cells, R848 agonist 30 uM final concentration, Steady-Glo readout; read-out: TLR8 potency.

For the compound `C[C@@H]1CN(c2cnc(C#N)c3ncccc23)C[C@H](CN2CCC(N)C(F)(F)C2)O1` (stereo partly drawn) [Example 369, 5-[(2S,6R)-2-(4-Amino-3,3-difluoro-piperidin-1-ylmethyl)-6-methyl-morpholin-4-yl]-[1,7]naphthyridine-8-carbonitrile], the IC50 on TLR7 and on TLR8 was less than 75 nM each time.
Consider `C[C@@H]1CN(c2ccc(C(F)(F)F)c3ncccc23)C[C@H](CN2CCC(N3CCCC3)CC2)O1` [Example 328, 5-[(2R,6S)-2-Methyl-6-(4-pyrrolidin-1-yl-piperidin-1-ylmethyl)-morpholin-4-yl]-8-trifluoromethyl-quinoline], for which the IC50 is less than 75 nM on TLR7 and 75 to 150 nM on TLR8.
With `N#Cc1ccc(N2C[C@@H](C(=O)NCC3(F)CCNCC3)O[C@@H](C(F)(F)F)C2)c2nccnc12` (single isomer, unassigned) [Example 306], the IC50 at TLR7 and at TLR8 was less than 75 nM in each case.
As to `CC(C(=O)N[C@@H]1C[C@H](C)CN(c2ccc(C#N)c3nccnc23)C1)N1CCC(O)CC1` (single isomer, unassigned) [Example 102], the IC50 on TLR7 and on TLR8 was less than 75 nM each time.
In the case of `C[C@@H]1CN(c2ccc(C#N)c3nccnc23)C[C@H](CN2CC[C@H](O)C2)O1` [Example 220, 8-[(2S,6R)-2-((S)-3-Hydroxy-pyrrolidin-1-ylmethyl)-6-methyl-morpholin-4-yl]-quinoxaline-5-carbonitrile], the IC50 on TLR7 was less than 75 nM; on TLR8 it was more than 150 nM.
For `C[C@@H]1CN(c2ccc(C#N)c3nccnc23)C[C@H](CN2CCC(C(C)(C)O)C2)O1` (stereo partly drawn) [Example 222, 8-{(2S,6R)-2-[3-(1-Hydroxy-1-methyl-ethyl)-pyrrolidin-1-ylmethyl]-6-methyl-morpholin-4-yl}-quinoxaline-5-carbonitrile], in that order: less than 75 nM and 75 to 150 nM.
For `Cc1cc(CC(=O)N[C@@H]2C[C@H](C)CN(c3ccc(C#N)c4nccnc34)C2)on1` [Example 74, N-[(3R,5S)-1-(8-cyanoquinoxalin-5-yl)-5-methylpiperidin-3-yl]-2-(3-methyl-1,2-oxazol-5-yl)acetamide] the same measures were less than 75 nM and less than 75 nM.
For `CN1CCC(F)(CNC(=O)[C@H]2CN(c3ccc(C#N)c4ncccc34)C[C@@H](C(F)(F)F)O2)CC1` (single isomer, unassigned) [Example 353] the same measures were less than 75 nM and less than 75 nM.
Regarding `N#Cc1ccc(N2C[C@H](NCC3CCCNC3)C[C@H](C(F)(F)F)C2)c2cccnc12` (stereo partly drawn) [Example 152, 5-{(3R,5S)-3-[(Piperidin-3-ylmethyl)-amino]-5-trifluoromethyl-piperidin-1-yl}-quinoline-8-carbonitrile], the IC50 on TLR7 and on TLR8 was 75 to 150 nM in each case.
For `C[C@H]1C[C@@H](NCC(C)(C)O)CN(c2ccc(C#N)c3nccnc23)C1` [Example 16, 8-[(3R,5S)-3-(2-Hydroxy-2-methyl-propylamino)-5-methyl-piperidin-1-yl]-quinoxaline-5-carbonitrile formic acid], the IC50 on TLR7 and on TLR8 was less than 75 nM each time.
Take `C[C@@H]1CN(c2cnc(C#N)c3ncccc23)C[C@H](CNCC2(F)CCOCC2)O1` [Example 377, 5-((2S,6R)-2-{[(4-Fluoro-tetrahydro-pyran-4-ylmethyl)-amino]-methyl}-6-methyl-morpholin-4-yl)-[1,7]naphthyridine-8-carbonitrile]: the IC50 on TLR7 and on TLR8 was more than 150 nM throughout.
Regarding `C[C@H]1C[C@@H](NCC(C)(F)C(=O)O)CN(c2ccc(C#N)c3nccnc23)C1` (stereo partly drawn) [Example 15, 3-[(3R,5S)-1-(8-Cyano-quinoxalin-5-yl)-5-methyl-piperidin-3-ylamino]-2-fluoro-2-methyl-propionic acid], the IC50 on TLR7 and on TLR8 was less than 75 nM each time.
In the case of `C[C@H]1C[C@@H](NC(=O)C2(F)CCNC2)CN(c2ccc(C(F)(F)F)c3ncccc23)C1` (stereo partly drawn) [Example 205, 3-fluoro-N-[(3R,5S)-5-methyl-1-[8-(trifluoromethyl)quinolin-5-yl]piperidin-3-yl]pyrrolidine-3-carboxamide], the IC50 at TLR7 and at TLR8 was less than 75 nM in each case.
For the compound `C[C@H]1C[C@@H](NC(=O)CC2(O)CCN(C)CC2)CN(c2ccc(C#N)c3nccnc23)C1` [Example 72, N-[(3R,5S)-1-(8-cyanoquinoxalin-5-yl)-5-methylpiperidin-3-yl]-2-(4-hydroxy-1-methylpiperidin-4-yl)acetamide hydrochloride], the IC50 at TLR7 and at TLR8 was less than 75 nM throughout.
Take `C[C@@H]1CN(c2ccc(C#N)c3nccnc23)C[C@H](C(=O)N[C@@H](CO)C(=O)O)O1` [Example 321, (S)-2-{[(2R,6R)-4-(8-Cyano-quinoxalin-5-yl)-6-methyl-morpholine-2-carbonyl]-amino}-3-hydroxy-propionic acid]: the IC50 at TLR7 is 75 to 150 nM; on TLR8, more than 150 nM.
For `N#Cc1ccc(N2C[C@H](NC(=O)C3(F)CCNC3)C[C@H](C(F)(F)F)C2)c2cccnc12` (stereo partly drawn) [Example 206, N-[(3R,5S)-1-(8-cyanoquinolin-5-yl)-5-(trifluoromethyl)piperidin-3-yl]-3-fluoropyrrolidine-3-carboxamide] the same measures were 75 to 150 nM and 75 to 150 nM.
For `CNS(=O)(=O)CCCN[C@@H]1C[C@H](C)CN(c2ccc(C(F)(F)F)c3ncccc23)C1` [Example 32, 3-[(3R,5S)-5-Methyl-1-(8-trifluoromethyl-quinolin-5-yl)-piperidin-3-ylamino]-propane-1-sulfonic acid methylamide], in that order: less than 75 nM and less than 75 nM.
In the case of `COC[C@@H](O)CNC(=O)[C@H]1CN(c2ccc(C#N)c3nccnc23)C[C@@H](C)O1` (single isomer, unassigned) [Example 327], the IC50 at TLR7 and on TLR8 was less than 75 nM each time.
In the case of `COC[C@H](O)CNC(=O)[C@H]1CN(c2ccc(C#N)c3nccnc23)C[C@@H](C)O1` (single isomer, unassigned) [Example 326], the IC50 at TLR7 is 75 to 150 nM; at TLR8, less than 75 nM.
For the compound `CC(C(=O)N[C@@H]1C[C@H](C)CN(c2ccc(C#N)c3nccnc23)C1)N1CCN(C)CC1` (single isomer, unassigned) [Example 90], the IC50 at TLR7 and at TLR8 was less than 75 nM each time.
As to `C[C@H]1C[C@@H](NC(=O)NC2CCN(C)CC2)CN(c2ccc(C(F)(F)F)c3ncccc23)C1` [Example 147, 1-(1-Methyl-piperidin-4-yl)-3-[(3R,5S)-5-methyl-1-(8-trifluoromethyl-quinolin-5-yl)-piperidin-3-yl]-urea], the IC50 is more than 150 nM on TLR7 and less than 75 nM at TLR8.

The values are drawn from US20210300940A1 (Merck Patent GmbH, priority 2018, published 2021).
